Results reported in PubChem BioAssay AID1259411 (Chemical Carcinogenesis Research Information System (CCRIS), 2018).
Activity calls are given as the source filed them. How the calls were made is not given here.

Test system: rodent carcinogenicity bioassays, tumor incidence
Assay: CCRIS carcinogenicity studies
Conditions: Route: ORAL
Procedure, shortened: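 Archive of carcinogenicity, mutagenicity, tumor promotion and tumor inhibition results drawn from journals, NCI reports and other sources, expert-reviewed; covers 1985-2011 and is no longer updated.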

O=NN1CCC(=O)NC1=O
carcinogen call (Species: RAT, Strain/Sex: WISTAR/FEMALE, Dose: 0, 450 MG/L CITRATE BUFFER SOLUTION IN DRINKING WATER 5D/WK FOR AN AVERAGE TOTAL DOSE OF 0, 950 MG (STUDY DURATION: 28 W, Dose: 0, 450 MG/L CITRATE BUFFER SOLUTION IN DRINKING WATER 5D/WK FOR AN AVERAGE TOTAL DOSE OF 0, 950 MG (STUDY DURATION: 28 W, Tumor Site: Type of Lesion: LIVER: CARCINOMA): active; positive
carcinogen call (Species: RAT, Strain/Sex: WISTAR/MALE, Dose: 0, 450 MG/L CITRATE BUFFER SOLUTION IN DRINKING WATER 5D/WK FOR AN AVERAGE TOTAL DOSE OF 0, 1250 MG (STUDY DURATION: 32, Dose: 0, 450 MG/L CITRATE BUFFER SOLUTION IN DRINKING WATER 5D/WK FOR AN AVERAGE TOTAL DOSE OF 0, 1250 MG (STUDY DURATION: 32, Tumor Site: Type of Lesion: LIVER: CARCINOMA, KIDNEY: ADENOMA): active; positive

O=NO
carcinogen call (Species: MOUSE, Strain/Sex: B6C3F1/FEMALE, Dose: 0, 30.7, 310 MG/D IN DRINKING WATER FOR LIFE ADMINISTERED TO MICE OF MOTHERS EXPOSED TO SAME DOSES THROUGH PREGNANCY AND, Dose: 0, 30.7, 310 MG/D IN DRINKING WATER FOR LIFE ADMINISTERED TO MICE OF MOTHERS EXPOSED TO SAME DOSES THROUGH PREGNANCY AND): inactive; negative
carcinogen call (Species: MOUSE, Strain/Sex: B6C3F1/FEMALE, Dose: 0, 750, 1500, 3000 PPM IN DRINKING WATER FOR 104-105 WK (STUDY DURATION: 104-105 WK), Dose: 0, 750, 1500, 3000 PPM IN DRINKING WATER FOR 104-105 WK (STUDY DURATION: 104-105 WK), Tumor Site: Type of Lesion: FORESTOMACH: SQUAMOUS CELL PAPILLOMA OR CARCINOMA): equivocal
carcinogen call (Species: MOUSE, Strain/Sex: B6C3F1/MALE, Dose: 0, 30.7, 310 MG/D IN DRINKING WATER FOR LIFE ADMINISTERED TO MICE OF MOTHERS EXPOSED TO SAME DOSES THROUGH PREGNANCY AND, Dose: 0, 30.7, 310 MG/D IN DRINKING WATER FOR LIFE ADMINISTERED TO MICE OF MOTHERS EXPOSED TO SAME DOSES THROUGH PREGNANCY AND): inactive; negative
carcinogen call (Species: MOUSE, Strain/Sex: B6C3F1/MALE, Dose: 0, 750, 1,500, 3,000 PPM IN DRINKING WATER FOR 104-105 WK (STUDY DURATION: 104-105 WK), Dose: 0, 750, 1,500, 3,000 PPM IN DRINKING WATER FOR 104-105 WK (STUDY DURATION: 104-105 WK)): inactive; negative
carcinogen call (Species: MOUSE, Strain/Sex: C57BL/FEMALE, Dose: 0, 30.7, 310 MG/D IN DRINKING WATER BEGINNING AT 7-8 WK OF AGE AND CONTINUING FOR STUDY DURATION (STUDY DURATION: LIFE S, Dose: 0, 30.7, 310 MG/D IN DRINKING WATER BEGINNING AT 7-8 WK OF AGE AND CONTINUING FOR STUDY DURATION (STUDY DURATION: LIFE S): inactive; negative
carcinogen call (Species: MOUSE, Strain/Sex: VM/FEMALE, Dose: 0, 0.2% IN DRINKING WATER BEGINNING AT WEANING AND CONTINUING FOR DURATION STUDY (STUDY DURATION: LIFETIME)): inactive; negative
carcinogen call (Species: MOUSE, Strain/Sex: VM/FEMALE, Dose: 0, 0.2% IN DRINKING WATER BEGINNING IN UTERO AND CONTINUING FOR DURATION OF STUDY (STUDY DURATION: LIFETIME)): inactive; negative
carcinogen call (Species: MOUSE, Strain/Sex: VM/MALE, Dose: 0, 0.2% IN DRINKING WATER BEGINNING AT WEANING AND CONTINUING FOR DURATION OF STUDY (STUDY DURATION: LIFETIME)): inactive; negative
carcinogen call (Species: MOUSE, Strain/Sex: VM/MALE, Dose: 0, 0.2% IN DRINKING WATER BEGINNING IN UTERO AND CONTINUING FOR DURATION OF STUDY (STUDY DURATION: LIFETIME)): inactive; negative
carcinogen call (Species: RAT, Strain/Sex: F344/FEMALE, Dose: 0, 750, 1,500, 3,000 PPM IN DRINKING WATER FOR 105 WK (STUDY DURATION: 105 WK), Dose: 0, 750, 1,500, 3,000 PPM IN DRINKING WATER FOR 105 WK (STUDY DURATION: 105 WK)): inactive; negative
carcinogen call (Species: RAT, Strain/Sex: F344/MALE,FEMALE, Dose: 0.125, 0.25% IN DRINKING WATER FOR 2 YR): inactive; negative
carcinogen call (Species: RAT, Strain/Sex: F344/MALE, Dose: 0, 0.2, 0.5% IN DIET FOR 115 WK (STUDY DURATION: 115 WK), Dose: 0, 0.2, 0.5% IN DIET FOR 115 WK (STUDY DURATION: 115 WK)): inactive; negative
carcinogen call (Species: RAT, Strain/Sex: F344/MALE, Dose: 0, 750, 1,500, 3,000 PPM IN DRINKING WATER FOR 105 WK (STUDY DURATION: 105 WK), Dose: 0, 750, 1,500, 3,000 PPM IN DRINKING WATER FOR 105 WK (STUDY DURATION: 105 WK)): inactive; negative
